Laboratory results: patent publication US12493040B2, “Cancer detection method using sense of smell of nematode” (HIROTSU BIO SCIENCE INC., priority 2013, dated 2025)

Experiments:
nematodes (C. elegans) [1] = conditions: sri-14 mutant; 4M NaCl
Text: The present inventor has used 4 M NaCl for osmotic stimulus, and has assayed an osmotic pressure avoidance behavior, as previously reported (38).

nematodes (C. elegans) [2] = assay: Chemotaxis assay of wild-type, mutant, neuron-specific knockdown, neuron-ablated or interneuron-inhibited nematodes to odorants; format: in vivo, Caenorhabditis elegans
Experimental: Except for the eri-1 mutant that was cultured with Escherichia coli (E. coli) OP50, the nematodes (C. elegans) were cultured at 20° C. under standard conditions in a nematode growth medium (NGM) plate (36) comprising Escherichia coli NA22 as a food source. The used wild-type nematodes were of a Bristol N2 strain. As other nematode strains, GR1373: eri-1 (mg366), VC2123: sri-14 (ok2865), CX3410: odr-10 (ky225), and MT7929: unc-13 (e51) were used.
(§1) Nine adult eri-1 mutants were placed on an NGM plate containing isopropyl 1-D-1-thiogalactopyranoside (0.19 g/L), ampicillin (60 mg/L), and Escherichia coli (E. coli), and were then cultured for 4 days. Subsequently, the adult worms were used in a chemotaxis assay. The chemotaxis assay was carried out as previously reported (6, 17). In the chemotaxis assay, the present inventor has used 30 to 50 worms in each experiment in which 1 μl of 10^−3- or 10^−4-diluted odorant (low concentration), or 1 and 5 μl of undiluted odorants (high concentration) were used.
A gene to knock down the function of sri-14 in specific neurons was constructed, as previously reported (24). The target region of sri-14 (a 1.6-kb genome sequence) was amplified using the following two primers: […]
The gene expression of ASH was carried out using a sra-6 (20) promoter, and that of AWC was carried out using ceh-36 (39) and srd-17 promoters.
The present inventor has used mouse caspase-1 (mCasp1) for ablation of the AWA, AWB, AWC and ASH neurons. mCasp1 was each expressed by odr-10 (11), str-1 (15), ceh-36 (39), and sra-6 (20) promoters, respectively. Moreover, for inhibition of interneurons, unc-103 (gf) was used. The AIA-, AIB-, AIY-, or AIZ-specific expression of the unc-103 (gf) was carried out using a gcy-28.d (29), npr-9 (40), ttx-3 (41, 42), or lin-11 (43, 44) promoter, respectively.
Total RNA, which had been isolated using PureLink RNA Minikit (Ambion), was converted to cDNA by ReverTra Ace qPCR master mix using gDNA Remover (Toyobo) in accordance with the instructions made by the manufacturer. The sri-14 cDNA was amplified using the following two primers, was then digested with Nhe I and Kpn I, and was then inserted into a pPD-DEST vector (Invitrogen): […]

AWA neurons = assay: Calcium imaging (YC3.60, microfluidic device) of AWA neurons to diacetyl; format: in vivo, Caenorhabditis elegans
Experimental: (§2) In order to monitor the response of the AWA, AWB, AWC and ASH neurons, the present inventor has produced strains expressing YC3.60, using odr-10, str-1, odr-3, and sra-6 promoters (11, 15, 20, and 45), respectively. As previously reported (33, 46, 47), calcium imaging was carried out using a microfluidic device. In an experiment using such a microfluidic device, a nematode was captured by a microchannel such that the nose of the nematode was exposed to running water containing a solution of diacetyl [10^−5-diluted (low concentration) and 10^−3-diluted (high concentration)], or a solution with no smell, and thus, each nematode was immobilized. The room temperature was set from 20° C. to 23° C. The fluorescence image of YC3.60 was taken using Zeiss Axioplan 2 comprising 40× objective lens and a 3CCD digital camera (C7780, Hamamatsu Photonics). All images were recovered at an exposure time of 200 ms. The time stacks of AWA, AWB, AWC, and ASH cell bodies were captured, and thereafter, using AquaCosmos software (ver. 2.6, Hamamatsu Photonics), the emission ratio between a yellow fluorescent protein (YFP) and a cyan fluorescent protein (CFP) was analyzed. This ratio was calculated as YEP intensity/CFP intensity (R), and the average ratio in 10-second window (−10 to 0 seconds) was set as RO.

[3] = system: RNAi-treated eri-1 (mg366) nematodes; assay: RNAi screening of olfactory receptor genes: chemotaxis assay of RNAi-treated nematodes to odorants; format: in vivo, Caenorhabditis elegans; conditions: for chemotaxis index: low concentration of attractant
Experimental: The RNAi assay was carried out by performing an RNAi method involving the feeding (feeding RNAi method) of eri-1 (mg366) (19), using an Ahringer library (37).
as §1
The z score and a control value in each single test from 2SD were calculated in all days (Table 3) or every day. The z score was used as a threshold indicating a great difference (−1.96 and 1.96, P<0.05). […] Accordingly, the present inventor has used the z score±1 (−0.96 and 0.96, P<0.33) as a weaker threshold.

ASH neurons = assay: Calcium imaging (YC3.60, microfluidic device) of ASH neurons to diacetyl; format: in vivo, Caenorhabditis elegans
Experimental: as §2

AWC neurons = assay: Calcium imaging (YC3.60, microfluidic device) of AWC neurons to diacetyl; format: in vivo, Caenorhabditis elegans; conditions: wild-type; removal of high concentration of diacetyl (10^−3 diluted)
Experimental: as §2

AWB neurons = assay: Calcium imaging (YC3.60, microfluidic device) of AWB neurons to diacetyl; format: in vivo, Caenorhabditis elegans
Experimental: as §2

[4] = high concentration of diacetyl (5 μl, undiluted)
[5] = unc-103 (gf) expression, high concentration of diacetyl (5 μl, undiluted)
[6] = high concentration of diacetyl (10^−3 diluted)
[7] = low concentration of diacetyl (10^−5 diluted)
[8] = low (10^−5 diluted) and high (10^−3 diluted) concentration of diacetyl

SMILES: [Cl-].[Na+] [NaCl]
- avoidance behavior to high osmotic stimulus (nematodes (C. elegans) [1]): normal avoidance behavior

SMILES: CC(=O)C(C)=O [diacetyl]
- response of AWA and ASH double-ablated nematodes (nematodes (C. elegans) [2]; high concentration of diacetyl): more severe defect
- avoidance behavior of ASH-ablated nematodes (nematodes (C. elegans) [2]; [4]): avoidance behavior was inhibited
- avoidance defect of sri-14 mutant with ASH-specific expression of sri-14 cDNA (nematodes (C. elegans) [2]; [4]): rescued
- avoidance defect of sri-14 mutant with AWA-, AWB- or AWC-specific expression of sri-14 cDNA (nematodes (C. elegans) [2]; [4]): partially rescued or was not rescued
- avoidance of AWA-ablated nematodes (nematodes (C. elegans) [2]; [4]): decrease in the avoidance
- chemotaxis of AWB- or AWC-ablated nematodes (nematodes (C. elegans) [2]; [4]): did not exhibit a defect in the chemotaxis
- attraction of AWA-ablated nematodes (nematodes (C. elegans) [2]; low concentration of diacetyl (10^−3 diluted)): decrease in the attraction
- attraction of nematodes with interneurons inhibited (nematodes (C. elegans) [2]; low concentration of diacetyl (10^−3 diluted), except for MY): not influenced
- chemotaxis of odr-10 mutant (nematodes (C. elegans) [2]; high concentration of diacetyl): normal chemotaxis
- chemotaxis of odr-10 mutant (nematodes (C. elegans) [2]; low concentration of diacetyl): reduced attraction
- avoidance response of sri-14 mutant (nematodes (C. elegans) [2]; sri-14 (ok2865) mutant, high concentration of diacetyl): defect in the avoidance response
- reaction of sri-14 loss-of-function mutant (nematodes (C. elegans) [2]; sri-14 mutant, low concentration of diacetyl): normal reaction
- response of nematodes with AIA, AIY or AIZ interneurons inhibited (nematodes (C. elegans) [2]; [5]): from an avoidance response to an attraction response
- response of nematodes with AIB interneurons inhibited (nematodes (C. elegans) [2]; [5]): attenuated the avoidance response
- avoidance from diacetyl, ASH-specific knockdown of sri-14 (nematodes (C. elegans) [2]; wild-type nematode, ASH-specific RNAi of sri-14, high concentration of diacetyl (5 μl, undiluted)): defect in the avoidance
- avoidance from diacetyl, AWC-specific knockdown of sri-14 (nematodes (C. elegans) [2]; wild-type nematode, AWC-specific RNAi of sri-14, high concentration of diacetyl (5 μl, undiluted)): abnormality was not observed
- calcium response of AWA neurons, odr-10 mutants and wild-type nematodes (AWA neurons; [6]): normally responded
- calcium response of AWA neurons, odr-10 mutants (AWA neurons; [7]): did not respond
- calcium response of AWA neurons, wild-type nematodes or sri-14 mutants (AWA neurons; [7]): intracellular calcium was increased
- avoidance from diacetyl after RNAi of sri-14 ([3]; RNAi of sri-14, high concentration of diacetyl (5 μl, undiluted)): significantly strong defect in the avoidance
- response (chemotaxis) to diacetyl after knockdown of odr-10 ([3]; eri-1 mutant, RNAi of odr-10, low concentration (10; diluted) of diacetyl): specific defect in the response
- avoidance behavior from diacetyl after RNAi of srh-25, srh-79, srh-216 or srh-281 ([3]; high concentration of diacetyl (5 μl, undiluted), repeated assay): significant and reproducible defect
- Ca2+ response of ASH neurons, odr-10 mutant (ASH neurons; [6]): normally induced
- Ca2+ response of ASH neurons, sri-14 mutant (ASH neurons; [6]): significantly reduced
- Ca2+ response of ASH, ASH-specific knockdown of sri-14 in wild-type nematodes (ASH neurons; [6]): reduced
- calcium response of ASH neurons, AWA-ablated nematodes (ASH neurons; [6]): enhances the calcium response
- defect in ASH response of sri-14 mutant with ASH-specific expression of wild-type sri-14 (ASH neurons; [6]): rescued
- Ca2+ response of ASH neurons, wild-type nematodes (ASH neurons; [8]): Ca2+ response only to a high concentration of diacetyl was detected
- calcium response of ASH neurons, unc-13 mutants vs wild type (ASH neurons; unc-13(e51), high concentration of diacetyl (10^−3 diluted)): significantly larger
- Ca2+ response of AWC neurons after removal of diacetyl (AWC neurons): a Ca2+ response occurs
- Ca2+ response of wild-type AWB neurons after removal of the smell (AWB neurons; [8]): slight Ca2+ response
- Ca2+ response of AWB neurons with ectopic expression of SRI-14 (AWB neurons; removal of high concentration of diacetyl (10^−3 diluted), vs wild-type AWB): significantly enhanced
- Ca2+ response of AWB neurons with ectopic expression of SRI-14 (AWB neurons; removal of low concentration of diacetyl (10^−5 diluted)): did not change the response

SMILES: CC(C)CCO [isoamyl alcohol]
- chemotaxis index ([3]; srh-10 RNAi-treated nematodes): −0.12
- chemotaxis index ([3]; srh-11 RNAi-treated nematodes): 0.05
- chemotaxis index ([3]; srh-15 RNAi-treated nematodes): 0.59
- chemotaxis index ([3]; srh-16 RNAi-treated nematodes): 0.86
- chemotaxis index ([3]; srh-18 RNAi-treated nematodes): 0.67
- chemotaxis index ([3]; srh-19 RNAi-treated nematodes): 0.67
- chemotaxis index ([3]; srh-22 RNAi-treated nematodes): 0.58
- chemotaxis index ([3]; srh-23 RNAi-treated nematodes): 0.54
- chemotaxis index ([3]; srh-24 RNAi-treated nematodes): 0.58
- chemotaxis index ([3]; srh-214 RNAi-treated nematodes): 0.63
- chemotaxis index ([3]; srh-216 RNAi-treated nematodes): 0.76
- chemotaxis index ([3]; srh-217 RNAi-treated nematodes): −0.12
- chemotaxis index ([3]; srh-220 RNAi-treated nematodes): 0.81
- chemotaxis index ([3]; srh-222 RNAi-treated nematodes): 0.80
- chemotaxis index ([3]; srh-223 RNAi-treated nematodes): 0.51
- chemotaxis index ([3]; srh-227 RNAi-treated nematodes): 0.43
- chemotaxis index ([3]; srh-229 RNAi-treated nematodes): −0.20
- chemotaxis index ([3]; srh-233 RNAi-treated nematodes): 0.36
- chemotaxis index ([3]; srh-235 RNAi-treated nematodes): 0.64
- chemotaxis index ([3]; srh-236 RNAi-treated nematodes): 0.41
- chemotaxis index ([3]; srh-239 RNAi-treated nematodes): 0.57
- chemotaxis index ([3]; srh-241 RNAi-treated nematodes): 0.63
- chemotaxis index ([3]; srh-243 RNAi-treated nematodes): 0.46
- chemotaxis index ([3]; srh-244 RNAi-treated nematodes): 0.74
- chemotaxis index ([3]; srh-247 RNAi-treated nematodes): 0.60
- chemotaxis index ([3]; srh-250 RNAi-treated nematodes): 0.47
- chemotaxis index ([3]; srh-251 RNAi-treated nematodes): 0.75
- chemotaxis index ([3]; srh-252 RNAi-treated nematodes): 0.59
- chemotaxis index ([3]; srh-258 RNAi-treated nematodes): 0.78
- chemotaxis index ([3]; srh-261 RNAi-treated nematodes): 0.51
- chemotaxis index ([3]; srh-264 RNAi-treated nematodes): 0.61
- chemotaxis index ([3]; srh-266 RNAi-treated nematodes): 0.25
- chemotaxis index ([3]; srh-274 RNAi-treated nematodes): 0.44
- chemotaxis index ([3]; srh-275 RNAi-treated nematodes): 0.39
- chemotaxis index ([3]; srh-276 RNAi-treated nematodes): 0.58
- chemotaxis index ([3]; srh-277 RNAi-treated nematodes): 0.54
- chemotaxis index ([3]; srh-279 RNAi-treated nematodes): 0.53
- chemotaxis index ([3]; srh-281 RNAi-treated nematodes): 0.51
- chemotaxis index ([3]; srh-282 RNAi-treated nematodes): 0.52
- chemotaxis index ([3]; srh-283 RNAi-treated nematodes): 0.34
- chemotaxis index ([3]; srh-284 RNAi-treated nematodes): 0.73
- chemotaxis index ([3]; srh-291 RNAi-treated nematodes): 0.80
- chemotaxis index ([3]; srh-292 RNAi-treated nematodes): 0.43
- chemotaxis index ([3]; srh-293 RNAi-treated nematodes): 0.71
- chemotaxis index ([3]; srh-297 RNAi-treated nematodes): 0.42
- chemotaxis index ([3]; srh-298 RNAi-treated nematodes): 0.68
- chemotaxis index ([3]; srh-308 RNAi-treated nematodes): 0.56
